By Ki is commonly meant a dissociation constant, usually derived from enzyme kinetics or from competition with a known ligand.

What all share (experiment): biochemical
One experiment deals with T1, α-1a adrenoreceptor (Bos taurus, UniProt P18130).
T1 sequence (P18130 1-466): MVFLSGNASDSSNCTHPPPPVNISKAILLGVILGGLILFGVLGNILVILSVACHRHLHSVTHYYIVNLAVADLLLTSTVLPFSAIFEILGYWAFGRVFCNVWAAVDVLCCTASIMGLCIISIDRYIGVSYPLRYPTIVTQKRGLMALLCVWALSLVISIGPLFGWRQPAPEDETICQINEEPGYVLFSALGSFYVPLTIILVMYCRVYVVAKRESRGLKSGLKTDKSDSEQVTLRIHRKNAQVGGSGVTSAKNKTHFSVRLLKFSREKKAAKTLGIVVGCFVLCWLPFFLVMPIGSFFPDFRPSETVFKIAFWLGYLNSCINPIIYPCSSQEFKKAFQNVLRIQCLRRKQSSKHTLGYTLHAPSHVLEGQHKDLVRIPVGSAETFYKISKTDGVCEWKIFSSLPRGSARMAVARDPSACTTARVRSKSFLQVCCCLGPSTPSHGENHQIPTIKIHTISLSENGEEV
In kind it is binding, bovine. The conditions noted are these: [3H]-prazosin radioligand; cloned receptor in LTK cell membranes; read-out: Radioligand Binding (Ki, nM) 1a (Bovine). In short, it runs like this:
(§1)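 Cloned α-1a (bovine), α-1b (hamster) and α-1d (rat) adrenoreceptors were stably expressed in mouse LTK fibroblasts; membranes from roller-bottle cultures were used. Native α-1A sites came from rat submaxillary gland. Radioligand binding followed Greengrass and Bremner, with liquid scintillation read-out.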

Another experiment addresses T2, α-1b adrenoreceptor (Mesocricetus auratus, UniProt P18841).
T2 sequence (P18841 1-515): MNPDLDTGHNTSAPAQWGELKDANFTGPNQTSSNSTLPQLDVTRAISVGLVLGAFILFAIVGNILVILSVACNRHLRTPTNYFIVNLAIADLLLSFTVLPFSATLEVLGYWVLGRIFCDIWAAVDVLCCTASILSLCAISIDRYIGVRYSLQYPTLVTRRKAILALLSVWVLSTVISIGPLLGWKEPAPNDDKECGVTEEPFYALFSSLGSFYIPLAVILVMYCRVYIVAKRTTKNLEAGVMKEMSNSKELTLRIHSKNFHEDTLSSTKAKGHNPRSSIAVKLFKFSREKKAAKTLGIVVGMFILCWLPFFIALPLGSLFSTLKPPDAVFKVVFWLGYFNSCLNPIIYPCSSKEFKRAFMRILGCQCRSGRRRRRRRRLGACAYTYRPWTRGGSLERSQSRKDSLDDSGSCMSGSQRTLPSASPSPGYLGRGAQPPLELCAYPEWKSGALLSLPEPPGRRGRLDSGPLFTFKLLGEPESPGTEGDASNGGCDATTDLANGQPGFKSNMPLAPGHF
In kind it is binding, hamster. The conditions noted are these: [3H]-prazosin radioligand; cloned receptor in LTK cell membranes; read-out: Radioligand Binding (Ki, nM) 1b (Hamster). In outline: as §1

In the next experiment the target is T3, α-1d adrenoreceptor (Rattus norvegicus, UniProt P23944).
T3 sequence (P23944 1-561): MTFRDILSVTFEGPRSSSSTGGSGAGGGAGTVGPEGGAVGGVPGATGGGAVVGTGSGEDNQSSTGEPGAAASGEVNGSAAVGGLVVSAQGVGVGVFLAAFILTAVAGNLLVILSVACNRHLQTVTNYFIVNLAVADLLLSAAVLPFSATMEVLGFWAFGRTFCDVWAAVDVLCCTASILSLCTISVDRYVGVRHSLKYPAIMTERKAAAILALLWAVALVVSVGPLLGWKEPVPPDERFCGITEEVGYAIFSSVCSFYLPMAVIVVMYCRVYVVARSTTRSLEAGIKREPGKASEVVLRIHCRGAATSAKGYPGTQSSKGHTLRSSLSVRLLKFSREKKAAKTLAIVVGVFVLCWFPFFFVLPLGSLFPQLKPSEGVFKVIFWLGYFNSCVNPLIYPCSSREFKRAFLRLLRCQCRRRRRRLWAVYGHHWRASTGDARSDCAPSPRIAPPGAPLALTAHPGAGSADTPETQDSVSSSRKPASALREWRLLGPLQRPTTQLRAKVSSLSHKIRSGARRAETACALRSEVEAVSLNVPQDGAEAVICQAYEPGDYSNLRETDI
In kind it is binding. The conditions noted are these: [3H]-prazosin radioligand; cloned receptor in LTK cell membranes; read-out: Radioligand Binding (Ki, nM) 1d (Rat). In short, it runs like this:
as §1

Counter-ions that a name gives are not always drawn.

As for `COc1cccc2c1[C@@H]1CN(CCCCn3c(=O)[nH]c4c(sc5ccc(Cl)nc54)c3=O)C[C@@H]1CO2` [Example 37, 3-[4-((3aR,9bR)-cis-9-Methoxy-1,2,3,3a,4,9b-hexahydro-[1]-benzopyrano[3,4-c]pyrrol-2-yl)butyl]-8-chloro-pyrido[2',3':4,5]thieno[3,2-d]pyrimidine-2,4(1H,3H)-dione hydrochloride], the results for the Ki on α-1a adrenoreceptor, at α-1b adrenoreceptor and on α-1d adrenoreceptor were 0.069 nM, 3.34 nM and 0.195 nM, respectively.

Regarding `COc1cccc2c1[C@@H]1CN(CCCCn3c(=O)[nH]c4c(sc5cc(Cl)cnc54)c3=O)C[C@@H]1CO2` [Example 38, 3-[4-((3aR,9bR)-cis-9-Methoxy-1,2,3,3a,4,9b-hexahydro-[1]-benzopyrano[3,4-c]pyrrol-2-yl)butyl]-7-chloro-pyrido[2',3':4,5]thieno[3,2-d]pyrimidine-2,4(1H,3H)-dione hydrochloride], the Ki on α-1a adrenoreceptor was determined as 0.057 nM; on α-1b adrenoreceptor it was 5.63 nM; at α-1d adrenoreceptor, 0.897 nM.

For the compound `COc1cccc2c1[C@@H]1CN(CCCCn3c(=O)[nH]c4c(sc5ncc(-c6ccccc6)nc54)c3=O)C[C@@H]1CO2` [Example 39, 3-[4-((3aR,9bR)-cis-9-Methoxy-1,2,3,3a,4,9b-hexahydro-[1]-benzopyrano[3,4-c]pyrrol-2-yl)butyl]-8-phenyl-pyrazino[2',3':4,5]thieno[3,2-d]pyrimidine-2,4(1H,3H)-dione hydrochloride], the inhibition constant Ki at α-1a adrenoreceptor was determined as 0.226 nM; at α-1b adrenoreceptor it was 31.9 nM; on α-1d adrenoreceptor it was 2.15 nM.

`COc1cccc2c1[C@@H]1CN(CCCCn3c(=O)[nH]c4c(sc5nc(-c6ccccc6)cnc54)c3=O)C[C@@H]1CO2` [Example 40, 3-[4-((3aR,9bR)-cis-9-Methoxy-1,2,3,3a,4,9b-hexahydro-[1]-benzopyrano[3,4-c]pyrrol-2-yl)butyl]-7-phenyl-pyrazino[2',3':4,5]thieno[3,2-d]pyrimidine-2,4(1H,3H)-dione hydrochloride]: the values for the inhibitory constant (Ki) at α-1a adrenoreceptor, on α-1b adrenoreceptor and on α-1d adrenoreceptor were 3.02 nM, 33.8 nM and 7.12 nM, respectively.

On to `COc1cccc2c1[C@@H]1CN(CCCCn3c(=O)[nH]c4c(sc5ccncc54)c3=O)C[C@H]1CO2` [Example 41, 3-[4-((3aS,9bR)-trans-9-Methoxy-1,2,3,3a,4,9b-hexahydro-[1]-benzopyrano[3,4-c]pyrrol-2-yl)butyl]-pyrido[3',4':4,5]thieno[3,2-d]pyrimidine-2,4(1H,3H)-dione dihydrochloride], for which the Ki on α-1a adrenoreceptor came out at 0.031 nM; on α-1b adrenoreceptor, 0.603 nM; at α-1d adrenoreceptor, 0.041 nM.

Consider `COc1cccc2c1[C@@H]1CN(CCCCn3c(=O)[nH]c4c(sc5cnccc54)c3=O)C[C@H]1CO2` [Example 42, 3-[4-((3aS,9bR)-trans-9-Methoxy-1,2,3,3a,4,9b-hexahydro-[1]-benzopyrano[3,4-c]pyrrol-2-yl)butyl]-pyrido[4',3':4,5]thieno[3,2-d]pyrimidine-2,4(1H,3H)-dione dihydrochloride], for which the Ki on α-1a adrenoreceptor was 0.028 nM; at α-1b adrenoreceptor it was 0.829 nM; on α-1d adrenoreceptor, 0.066 nM.

In the case of `COc1cccc2c1[C@@H]1CN(CCCCn3c(=O)[nH]c4c(sc5ncccc54)c3=O)C[C@H]1CO2` [Example 44, 3-[4-((3aS,9bR)-trans-9-Methoxy-1,2,3,3a,4,9b-hexahydro-[1]-benzopyrano[3,4-c]pyrrol-2-yl)butyl]-pyrido[3',2':4,5]thieno[3,2-d]pyrimidine-2,4(1H,3H)-dione hydrochloride], the Ki was determined as 0.043 nM on α-1a adrenoreceptor, 0.622 nM on α-1b adrenoreceptor and 0.081 nM on α-1d adrenoreceptor.

For the compound `COc1cccc2c1[C@@H]1CN(CCCCn3c(=O)[nH]c4c(sc5nc(C)ccc54)c3=O)C[C@H]1CO2` [Example 45, 3-[4-((3aS,9bR)-trans-9-Methoxy-1,2,3,3a,4,9b-hexahydro-[1]-benzopyrano[3,4-c]pyrrol-2-yl)butyl]-7-methyl-pyrido[3',2':4,5]thieno[3,2-d]pyrimidine-2,4(1H,3H)-dione hydrochloride], the Ki worked out at 0.066 nM at α-1a adrenoreceptor, 1.34 nM at α-1b adrenoreceptor and 0.104 nM at α-1d adrenoreceptor.

`COc1ccc2c(n1)sc1c(=O)n(CCCCN3C[C@H]4COc5cccc(OC)c5[C@@H]4C3)c(=O)[nH]c12` [Example 46, 3-[4-((3aS,9bR)-trans-9-Methoxy-1,2,3,3a,4,9b-hexahydro-[1]-benzopyrano[3,4-c]pyrrol-2-yl)butyl]-7-methoxy-pyrido[3',2':4,5]thieno[3,2-d]pyrimidine-2,4(1H,3H)-dione hydrochloride]: the results for the Ki on α-1a adrenoreceptor, on α-1b adrenoreceptor and on α-1d adrenoreceptor were 0.033 nM, 2.58 nM and 0.114 nM, respectively.

Consider `COc1cccc2c1[C@@H]1CN(CCCCn3c(=O)[nH]c4c(sc5nc(Cl)ccc54)c3=O)C[C@H]1CO2` [Example 47, 3-[4-((3aS,9bR)-trans-9-Methoxy-1,2,3,3a,4,9b-hexahydro-[1]-benzopyrano[3,4-c]pyrrol-2-yl)butyl]-7-chloro-pyrido[3',2':4,5]thieno[3,2-d]pyrimidine-2,4(1H,3H)-dione hydrochloride], for which the Ki on α-1a adrenoreceptor was 0.038 nM; on α-1b adrenoreceptor it was 2.4 nM; on α-1d adrenoreceptor, 0.189 nM.

In the case of `COc1cccc2c1[C@@H]1CN(CCCCn3c(=O)[nH]c4c(sc5ccnc(Cl)c54)c3=O)C[C@@H]1CO2` [Example 48, 3-[4-((3aR,9bR)-cis-9-Methoxy-1,2,3,3a,4,9b-hexahydro-[1]-benzopyrano[3,4-c]pyrrol-2-yl)butyl]-9-chloro-pyrido[3',4';4,5]thieno[3,2-d]pyrimidine-2,4(1H,3H)-dione hydrochloride], the Ki worked out at 0.048 nM at α-1a adrenoreceptor, 5.75 nM on α-1b adrenoreceptor and 0.467 nM at α-1d adrenoreceptor.

With `COc1cccc2c1[C@@H]1CN(CCCCn3c(=O)[nH]c4c(sc5ccnc(OC)c54)c3=O)C[C@H]1CO2` [Example 49, 3-[4-((3aS,9bR)-trans-9-Methoxy-1,2,3,3a,4,9b-hexahydro-[1]-benzopyrano[3,4-c]pyrrol-2-yl)butyl]-9-methoxy-pyrido[3',4':4,5]thieno[3,2-d]pyrimidine-2,4(1H,3H)-dione fumarate], the inhibition constant (Ki) at α-1a adrenoreceptor is 0.007 nM; on α-1b adrenoreceptor, 0.129 nM; on α-1d adrenoreceptor it was 0.019 nM.

Take `COc1cccc2c1[C@@H]1CN(CCCCn3c(=O)[nH]c4c(sc5ncc(-c6ccccc6)nc54)c3=O)C[C@H]1CO2` [Example 50, 3-[4-((3aS,9bR)-trans-9-Methoxy-1,2,3,3a,4,9b-hexahydro-[1]-benzopyrano[3,4-c]pyrrol-2-yl)butyl]-8-phenyl-pyrazino[2',3':4,5]thieno[3,2-d]pyrimidine-2,4(1H,3H)-dione hydrochloride]: the inhibition constant Ki at α-1a adrenoreceptor was determined as 0.335 nM; at α-1b adrenoreceptor it was 20.8 nM; at α-1d adrenoreceptor, 0.391 nM.

Consider `COc1cccc2c1[C@@H]1CN(CCCCn3c(=O)[nH]c4c(sc5ccc(OC(C)C)nc54)c3=O)C[C@H]1CO2` [Example 51, 3-[4-((3aS,9bR)-trans-9-Methoxy-1,2,3,3a,4,9b-hexahydro-[1]-benzopyrano[3,4-c]pyrrol-2-yl)butyl]-8-isopropoxy-pyrido[2',3':4,5]thieno[3,2-d]pyrimidine-2,4(1H,3H)-dione hydrochloride], for which the inhibitory constant (Ki) at α-1a adrenoreceptor was found to be 0.064 nM; at α-1b adrenoreceptor, 0.868 nM; at α-1d adrenoreceptor, 0.371 nM.

For the origin of these results see patent EP0942911B1, “BENZOPYRANOPYRROLE AND BENZOPYRANOPYRIDINE ALPHA-1 ADRENERGIC COMPOUNDS” (Abbott Laboratories, priority 1996, dated 1998).
